Experimental data published in the NIST ThermoML archive (doi:10.1016/j.tca.2018.05.010).
Several values for one entry are separate records, joined by “and”; a condition that tells them apart may be missing. Identical values can stand only once. ± gives the expanded uncertainty stated by the source.

What was measured:
[1] = Crystal; for vapor or sublimation pressure: Transpiration method; for Normal melting temperature: DTA
[2] = Molar enthalpy of transition or fusion; conditions: Crystal; DSC

Row | vapor or sublimation pressure ([1]; 362.7 K) [kPa] | vapor or sublimation pressure ([1]; 367.8 K) [kPa] | vapor or sublimation pressure ([1]; 373 K) [kPa] | vapor or sublimation pressure ([1]; 388 K) [kPa] | vapor or sublimation pressure ([1]; 392.7 K) [kPa] | Normal melting temperature [1] [°C] | Molar enthalpy of transition or fusion [2] [kcal/mol] | vapor or sublimation pressure ([1]; 352.9 K) [kPa] | vapor or sublimation pressure ([1]; 358.2 K) [kPa] | vapor or sublimation pressure ([1]; 362.9 K) [kPa] | vapor or sublimation pressure ([1]; 373.2 K) [kPa] | vapor or sublimation pressure ([1]; 387.9 K) [kPa] | SMILES | vapor or sublimation pressure ([1]; 378 K) | vapor or sublimation pressure ([1]; 383 K)
1 | 0.0016 ± 0.00062 | 0.00264 ± 0.001 | 0.00431 ± 0.0016 | 0.0164 ± 0.0061 | 0.0241 ± 0.0088 | 134.6 ± 1.1 | 5.93 ± 0.143 |  |  |  |  |  | O=C(O)[C@@H](O)c1ccccc1 [(S)-2-hydroxy-2-phenylacetic acid] | 0.00647 ± 0.0026 kPa | 0.0109 ± 0.0042 kPa and 0.0107 ± 0.0041 kPa
2 |  | 0.00284 ± 0.0011 |  |  |  | 121.2 ± 1.1 | 6 ± 0.167 | 0.00068 ± 0.0003 | 0.00116 ± 0.00048 | 0.00193 ± 0.00074 | 0.0051 ± 0.0022 | 0.0179 ± 0.0067 | O=C(O)C(O)c1ccccc1 (stereo not drawn) [mandelic acid] | 0.0076 ± 0.003 kPa and 0.00771 ± 0.0031 kPa | 
